Reference: patent US6737383B1, “Herbicidal oxadiazolidines” (priority 1999, dated 2004)

Assays:
Italian ryegrass = assay: Test E Italian ryegrass; assay type: in vivo, Lolium multiflorum; conditions: Preemergence
winter wheat [1] = assay: Test E winter wheat; assay type: in vivo, Triticum aestivum; conditions: Postemergence, 0 to 100 scale, 0 is no effect, 100 is complete control
Summary of the method: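 Plants were grown under normal greenhouse practice; for postemergence, in sandy loam soil mixed 60:40 with potting mix, treated at the 1- to 4-leaf stage. The compound was in a non-phytotoxic solvent carrying a surfactant. After roughly 21 to 28 days plants were scored visually against untreated plants.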

winter wheat [2] = assay: Test E winter wheat; assay type: in vivo, Triticum aestivum; conditions: Preemergence
wild oat = assay: Test E wild oat; assay type: in vivo, Avena fatua; conditions: Preemergence
green foxtail = assay: Test E green foxtail; assay type: in vivo, Setaria viridis; conditions: Preemergence
wheat = assay: Test B pre/postemergence wheat; assay type: in vivo, Triticum aestivum; conditions: for Wheat plant response rating: scale of 0 to 10 where 0 is no effect and 10 is complete control
Summary of the method: (§1)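 Test chemicals in a non-phytotoxic solvent mixture with surfactant were sprayed preemergence onto planted seeds and postemergence onto plants 2 to 18 cm tall (1- to 4-leaf stage). After twelve to sixteen days in a greenhouse, injury was visually rated against untreated controls from 0 (no effect) to 10 (complete control).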

winter barley = assay: Test E winter barley; assay type: in vivo, Hordeum vulgare; conditions: Preemergence
blackgrass = assay: Test E blackgrass; assay type: in vivo, Alopecurus myosuroides; conditions: Preemergence
duck salad = assay: Test B flood test duck salad; assay type: in vivo, Heteranthera limosa; conditions: for Plant response rating, Ducksalad (0 to 10 scale, 0 is no effect, 10 is complete control): visual evaluation after twelve to sixteen days
Summary of the method: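 Plants were grown to the 2-leaf stage before treatment with test chemical, then held in a greenhouse for twelve to sixteen days. Injury was visually rated against untreated controls on a 0–10 scale, where 0 is no effect and 10 is complete control.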

crabgrass = assay: Test B pre/postemergence crabgrass; assay type: in vivo, Digitaria sanguinalis; conditions: for Crabgrass plant response rating: scale of 0 to 10 where 0 is no effect and 10 is complete control
Summary of the method: as §1

giant foxtail = assay: Test B pre/postemergence giant foxtail; assay type: in vivo, Setaria faberii; conditions: for Giant foxtail plant response rating: scale of 0 to 10 where 0 is no effect and 10 is complete control
Summary of the method: as §1

tall mallow = assay: Test D tall mallow; assay type: in vivo, Malva sylvestris; conditions: Postemergence, 0 to 100 scale
[3] = Rate 125 g/ha, 0 to 100 scale (0 no effect, 100 complete control)
[4] = Rate 500 g/ha, 0 to 100 scale (0 no effect, 100 complete control)
[5] = Postemergence, Rate 125 g/ha, scale 0 to 10, 0 is no effect, 10 is complete control
[6] = Preemergence, Rate 62 g/ha, scale 0 to 10 (0 no effect, 10 complete control)
[7] = Rate 500 g/ha, Postemergence, scale 0 to 10, 0 no effect, 10 complete control
[8] = Rate 250 g/ha, 0 to 100 scale, 0 no effect, 100 complete control
[9] = Postemergence (flood test), Rate 125 g/ha, scale 0 to 10, 0 is no effect, 10 is complete control
[10] = Rate 62 g/ha, Postemergence (flood test species), scale of 0 to 10 where 0 is no effect and 10 is complete control
[11] = Rate 62 g/ha, flood test species, Pre-emergence
[12] = Rate 125 g/ha, Pre-emergence, flood test species, scale 0 to 10 where 0 is no effect and 10 is complete control
[13] = Rate 250 g/ha, Pre-emergence, flood-test species, scale 0 to 10, 0 is no effect, 10 is complete control
[14] = Rate 500 g/ha, listed under Postemergence (flood test species), scale 0 to 10, 0 no effect, 10 complete control
[15] = Rate 500 g/ha, Pre-emergence, flood test species, scale 0 to 10 (0 no effect, 10 complete control)

## CC(C)N(C(=O)n1oc(=O)n(C2CCC2)c1=O)c1ccc(F)cc1 [Compound 350]
Italian ryegrass; [3]
  Plant response rating, I. Ryegrass: 60
Italian ryegrass; Rate 250 g/ha, 0 to 100 scale
  Plant response rating, I. Ryegrass: 90
Italian ryegrass; [4]
  Plant response rating, I. Ryegrass: 85
Winter wheat [1]; Rate 125 g/ha
  Plant response rating, Wheat (winter): 50
Winter wheat [1]; Rate 250 g/ha
  Plant response rating, Wheat (winter): 30
Winter wheat [1]; Rate 500 g/ha
  Plant response rating, Wheat (winter): 40
Winter wheat [2]; [3]
  Plant response rating, Wheat (winter): 40
Winter wheat [2]; Rate 250 g/ha, 0 to 100 scale
  Plant response rating, Wheat (winter): 40
Winter wheat [2]; [4]
  Plant response rating, Wheat (winter): 50
Wild oat; [3]
  Plant response rating, Wild oat: 40
Wild oat; Rate 250 g/ha, 0 to 100 scale
  Plant response rating, Wild oat: 60
Wild oat; [4]
  Plant response rating, Wild oat: 65
Green foxtail; [3]
  Plant response rating, Green foxtail: 65
Green foxtail; Rate 250 g/ha, 0 to 100 scale
  Plant response rating, Green foxtail: 55
Green foxtail; [4]
  Plant response rating, Green foxtail: 85
wheat; [5]
  Plant response rating, Wheat: 0
wheat; [6]
  Plant response rating, Wheat: 0
wheat; Preemergence, Rate 125 g/ha
  Wheat plant response rating (0 to 10 scale): 0
wheat; Preemergence, Rate 250 g/ha
  Wheat plant response rating: 2
wheat; Preemergence, Rate 500 g/ha
  Wheat plant response rating: 3
wheat; Rate 62 g/ha, Postemergence
  Wheat plant response rating: 0
wheat; [7]
  Plant response rating, Wheat: 2
Winter barley; [3]
  Plant response rating, Barley (winter): 5
Winter barley; [8]
  Plant response rating, Barley (winter): 10
Winter barley; [4]
  Plant response rating, Barley (winter): 25
blackgrass; [3]
  Plant response rating, Blackgrass: 50
blackgrass; Rate 250 g/ha, 0 to 100 scale
  Plant response rating, Blackgrass: 30
blackgrass; [4]
  Plant response rating, Blackgrass: 60
Duck salad; [9]
  Plant response rating, Ducksalad: 2
Duck salad; [10]
  Ducksalad plant response rating: 0
Duck salad; [11]
  Plant response rating, Ducksalad (0 to 10 scale, 0 is no effect, 10 is complete control): 0
Duck salad; [12]
  Ducksalad plant response rating: 0
Duck salad; [13]
  Ducksalad plant response rating: 0
Duck salad; [14]
  Plant response rating, Ducksalad: 3
Duck salad; [15]
  Ducksalad plant response rating: 0
crabgrass; [5]
  Plant response rating, Crabgrass: 1
crabgrass; [6]
  Plant response rating, Crabgrass: 8
crabgrass; Preemergence, Rate 125 g/ha
  Crabgrass plant response rating (0 to 10 scale): 8
crabgrass; Preemergence, Rate 250 g/ha
  Crabgrass plant response rating: 10
crabgrass; Preemergence, Rate 500 g/ha
  Crabgrass plant response rating: 10
crabgrass; Rate 62 g/ha, Postemergence
  Crabgrass plant response rating: 1
crabgrass; [7]
  Plant response rating, Crabgrass: 7
Giant foxtail; [5]
  Plant response rating, Giant foxtail: 8
Giant foxtail; [6]
  Plant response rating, Giant foxtail: 10
Giant foxtail; Preemergence, Rate 125 g/ha
  Giant foxtail plant response rating (0 to 10 scale): 10
Giant foxtail; Preemergence, Rate 250 g/ha
  Giant foxtail plant response rating: 10
Giant foxtail; Preemergence, Rate 500 g/ha
  Giant foxtail plant response rating: 10
Giant foxtail; Rate 62 g/ha, Postemergence
  Giant foxtail plant response rating: 5
Giant foxtail; [7]
  Plant response rating, Giant foxtail: 9

## COCC(C)n1c(=O)on(C(=O)N(c2ccc(F)cc2F)C(C)C)c1=O (stereo not shown) [Compound 352]
Tall mallow; Rate 16 g/ha, 0 no injury, 100 complete control
  Plant response rating, Tall Mallow: 0
Tall mallow; Rate 32 g/ha, 0 no injury, 100 complete control
  Plant response rating, Tall Mallow: 0
Tall mallow; Rate 64 g/ha, 0 no injury, 100 complete control
  Tall Mallow plant response rating: 30
Tall mallow; Rate 125 g/ha, 0 no injury, 100 complete control
  Tall Mallow plant response rating: 30
Tall mallow; Rate 250 g/ha
  Plant response rating, Tall Mallow: 20
wheat; [5]
  Plant response rating, Wheat: 3
wheat; [6]
  Plant response rating, Wheat: 0
wheat; Preemergence, Rate 125 g/ha
  Wheat plant response rating (0 to 10 scale): 0
wheat; Preemergence, Rate 250 g/ha
  Wheat plant response rating: 2
wheat; Preemergence, Rate 500 g/ha
  Wheat plant response rating: 6
wheat; Rate 62 g/ha, Postemergence
  Wheat plant response rating: 0
wheat; [7]
  Plant response rating, Wheat: 7
Duck salad; [9]
  Plant response rating, Ducksalad: 0
Duck salad; [10]
  Ducksalad plant response rating: 0
Duck salad; [14]
  Plant response rating, Ducksalad: 2
crabgrass; [5]
  Plant response rating, Crabgrass: 3
crabgrass; [6]
  Plant response rating, Crabgrass: 9
crabgrass; Preemergence, Rate 125 g/ha
  Crabgrass plant response rating (0 to 10 scale): 10
crabgrass; Preemergence, Rate 250 g/ha
  Crabgrass plant response rating: 10
crabgrass; Preemergence, Rate 500 g/ha
  Crabgrass plant response rating: 10
crabgrass; Rate 62 g/ha, Postemergence
  Crabgrass plant response rating: 1
crabgrass; [7]
  Plant response rating, Crabgrass: 4
Giant foxtail; [5]
  Plant response rating, Giant foxtail: 2
Giant foxtail; [6]
  Plant response rating, Giant foxtail: 10
Giant foxtail; Preemergence, Rate 125 g/ha
  Giant foxtail plant response rating (0 to 10 scale): 10
Giant foxtail; Preemergence, Rate 250 g/ha
  Giant foxtail plant response rating: 10
Giant foxtail; Preemergence, Rate 500 g/ha
  Giant foxtail plant response rating: 10
Giant foxtail; Rate 62 g/ha, Postemergence
  Giant foxtail plant response rating: 2
Giant foxtail; [7]
  Plant response rating, Giant foxtail: 9

## CCC(CC)n1c(=O)on(C(=O)N(c2ccc(F)cc2F)C(C)C)c1=O [Compound 353]
Italian ryegrass; [3]
  Plant response rating, I. Ryegrass: 40
Italian ryegrass; Rate 250 g/ha, 0 to 100 scale
  Plant response rating, I. Ryegrass: 90
Italian ryegrass; [4]
  Plant response rating, I. Ryegrass: 90
Winter wheat [1]; Rate 125 g/ha
  Plant response rating, Wheat (winter): 20
Winter wheat [1]; Rate 250 g/ha
  Plant response rating, Wheat (winter): 30
Winter wheat [1]; Rate 500 g/ha
  Plant response rating, Wheat (winter): 40
Winter wheat [2]; [3]
  Plant response rating, Wheat (winter): 20
Winter wheat [2]; Rate 250 g/ha, 0 to 100 scale
  Plant response rating, Wheat (winter): 40
Winter wheat [2]; [4]
  Plant response rating, Wheat (winter): 60
Wild oat; [3]
  Plant response rating, Wild oat: 30
Wild oat; Rate 250 g/ha, 0 to 100 scale
  Plant response rating, Wild oat: 55
Wild oat; [4]
  Plant response rating, Wild oat: 85
Green foxtail; [3]
  Plant response rating, Green foxtail: 70
Green foxtail; Rate 250 g/ha, 0 to 100 scale
  Plant response rating, Green foxtail: 100
Green foxtail; [4]
  Plant response rating, Green foxtail: 100
wheat; [5]
  Plant response rating, Wheat: 0
wheat; [6]
  Plant response rating, Wheat: 0
wheat; Preemergence, Rate 125 g/ha
  Wheat plant response rating (0 to 10 scale): 0
wheat; Preemergence, Rate 250 g/ha
  Wheat plant response rating: 2
wheat; Preemergence, Rate 500 g/ha
  Wheat plant response rating: 2
wheat; Rate 62 g/ha, Postemergence
  Wheat plant response rating: 0
wheat; [7]
  Plant response rating, Wheat: 0
Winter barley; [3]
  Plant response rating, Barley (winter): 10
Winter barley; [8]
  Plant response rating, Barley (winter): 20
Winter barley; [4]
  Plant response rating, Barley (winter): 30
blackgrass; [3]
  Plant response rating, Blackgrass: 10
blackgrass; Rate 250 g/ha, 0 to 100 scale
  Plant response rating, Blackgrass: 50
blackgrass; [4]
  Plant response rating, Blackgrass: 55
Duck salad; [11]
  Plant response rating, Ducksalad (0 to 10 scale, 0 is no effect, 10 is complete control): 0
Duck salad; [12]
  Ducksalad plant response rating: 0
Duck salad; [13]
  Ducksalad plant response rating: 0
Duck salad; [15]
  Ducksalad plant response rating: 0
crabgrass; [5]
  Plant response rating, Crabgrass: 0
crabgrass; [6]
  Plant response rating, Crabgrass: 7
crabgrass; Preemergence, Rate 125 g/ha
  Crabgrass plant response rating (0 to 10 scale): 9
crabgrass; Preemergence, Rate 250 g/ha
  Crabgrass plant response rating: 10
crabgrass; Preemergence, Rate 500 g/ha
  Crabgrass plant response rating: 10
crabgrass; Rate 62 g/ha, Postemergence
  Crabgrass plant response rating: 0
crabgrass; [7]
  Plant response rating, Crabgrass: 3
Giant foxtail; [5]
  Plant response rating, Giant foxtail: 3
Giant foxtail; [6]
  Plant response rating, Giant foxtail: 9
Giant foxtail; Preemergence, Rate 125 g/ha
  Giant foxtail plant response rating (0 to 10 scale): 10
Giant foxtail; Preemergence, Rate 250 g/ha
  Giant foxtail plant response rating: 10
Giant foxtail; Preemergence, Rate 500 g/ha
  Giant foxtail plant response rating: 10
Giant foxtail; Rate 62 g/ha, Postemergence
  Giant foxtail plant response rating: 0
Giant foxtail; [7]
  Plant response rating, Giant foxtail: 8
